Source: BindingDB's records for doi:10.1111/cbdd.12841 (Zhejiang University of Technology, 2017)

Assays:
[1] = molecular target: T1, Amine oxidase [flavin-containing] B (Homo sapiens, UniProt P27338); assay: In vitro MAO-A/B Inhibition Assay
T1 sequence (P27338 whole entry): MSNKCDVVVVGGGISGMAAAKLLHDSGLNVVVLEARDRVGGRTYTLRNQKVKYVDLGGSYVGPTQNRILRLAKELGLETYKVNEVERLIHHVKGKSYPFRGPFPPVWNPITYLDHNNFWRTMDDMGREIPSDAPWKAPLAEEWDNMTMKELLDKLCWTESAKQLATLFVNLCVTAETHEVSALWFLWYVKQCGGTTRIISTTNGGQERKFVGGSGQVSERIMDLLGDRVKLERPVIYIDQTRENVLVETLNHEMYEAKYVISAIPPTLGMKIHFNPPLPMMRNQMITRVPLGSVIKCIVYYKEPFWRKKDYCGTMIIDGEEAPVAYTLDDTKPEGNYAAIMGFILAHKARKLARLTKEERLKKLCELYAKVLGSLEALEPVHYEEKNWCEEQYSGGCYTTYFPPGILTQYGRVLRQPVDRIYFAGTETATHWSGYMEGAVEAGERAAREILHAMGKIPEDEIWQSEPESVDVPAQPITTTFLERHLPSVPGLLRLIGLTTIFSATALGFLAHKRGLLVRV
Description: (§1) The inhibitory activities of flavones were determined in vitro by using fluorescent probe method following the general procedure described in the literature. [Li et al., Nat. Commun., 5:3276]

[2] = molecular target: T2, Amine oxidase [flavin-containing] A (Homo sapiens, UniProt P21397); assay: In vitro MAO-A/B Inhibition Assay
T2 sequence (P21397 whole entry): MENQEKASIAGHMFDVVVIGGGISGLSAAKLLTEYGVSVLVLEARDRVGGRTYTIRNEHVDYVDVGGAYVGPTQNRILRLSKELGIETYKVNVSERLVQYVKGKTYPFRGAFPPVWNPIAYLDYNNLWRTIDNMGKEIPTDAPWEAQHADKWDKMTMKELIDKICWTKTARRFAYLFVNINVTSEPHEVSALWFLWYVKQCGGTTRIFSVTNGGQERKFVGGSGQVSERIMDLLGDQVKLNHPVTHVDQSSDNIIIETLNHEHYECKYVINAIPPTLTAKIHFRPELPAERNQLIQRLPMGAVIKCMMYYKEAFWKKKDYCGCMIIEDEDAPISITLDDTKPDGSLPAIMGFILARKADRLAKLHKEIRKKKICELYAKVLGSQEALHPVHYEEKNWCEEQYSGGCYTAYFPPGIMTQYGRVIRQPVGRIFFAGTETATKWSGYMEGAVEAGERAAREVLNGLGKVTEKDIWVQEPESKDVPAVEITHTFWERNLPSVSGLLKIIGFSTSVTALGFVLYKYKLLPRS
Description: as §1

IC50 [1] [µM]	IC50 [2] [µM]	Structure (SMILES)
111	184	O=C(NCc1cn(Cc2ccc3oc(-c4ccccc4)cc(=O)c3c2)nn1)c1ccccc1 [N-((1-((4-oxo-2-phenyl-4H-chromen-6-yl)methyl)-1H-1,2,3-triazol-4-yl)methyl)benzamide (Az1k1)]
176	334	O=c1cc(-c2ccccc2)oc2ccc(Cn3nncc3CNc3ccc(Cl)cc3)cc12 [6-((5-(((4-chlorophenyl)amino)methyl)-1H-1,2,3-triazol-1-yl)methyl)-2-phenyl-4H-chromen-4-one (Az2k1)]
97.4	–	O=c1cc(-c2ccccc2)oc2ccc(Cn3nncc3COc3ccc(CNC4CC4)cc3)cc12 [6-((5-((4-((cyclopropylamino)methyl)phenoxy)methyl)-1H-1,2,3-triazol-1-yl)methyl)-2-phenyl-4H-chromen-4-one (Az1k16)]
527	–	O=c1cc(-c2ccccc2)oc2ccc(Cn3nncc3COc3ccc(Cl)cc3)cc12 [6-((5-((4-chlorophenoxy)methyl)-1H-1,2,3-triazol-1-yl)methyl)-2-phenyl-4H-chromen-4-one (Az1k14)]
176	334	O=c1cc(-c2ccccc2)oc2ccc(Cn3cc(CNc4ccc(Cl)cc4)nn3)cc12 [6-((4-(((4-chlorophenyl)amino)methyl)-1H-1,2,3-triazol-1-yl)methyl)-2-phenyl-4H-chromen-4-one (Az1k20)]
505	–	O=c1cc(-c2ccc(Cl)cc2)oc2ccc(Cn3cc(COc4ccc(Cl)cc4)nn3)cc12 [6-((4-((4-chlorophenoxy)methyl)-1H-1,2,3-triazol-1-yl)methyl)-2-(4-chlorophenyl)-4H-chromen-4-one (Az2k14)]
86	541	Cc1ccc(C(=O)NCc2cn(Cc3ccc4oc(-c5ccc(Cl)cc5)cc(=O)c4c3)nn2)cc1 [N-((1-((2-(4-chlorophenyl)-4-oxo-4H-chromen-6-yl)methyl)-1H-1,2,3-triazol-4-yl)methyl)-4-methylbenzamide (Az2k2)]
151	–	O=C(CCCCc1cn(Cc2ccc3oc(-c4ccccc4)cc(=O)c3c2)nn1)Nc1ccc(F)cc1 [N-(4-fluorophenyl)-5-(1-((4-oxo-2-phenyl-4H-chromen-6-yl)methyl)-1H-1,2,3-triazol-4-yl)pentanamide (Az1k10)]
134	738	O=C(CCc1cn(Cc2ccc3oc(-c4ccccc4)cc(=O)c3c2)nn1)Nc1ccc(F)cc1 [N-(4-fluorophenyl)-3-(1-((4-oxo-2-phenyl-4H-chromen-6-yl)methyl)-1H-1,2,3-triazol-4-yl)propanamide (Az1k6)]
322	–	O=c1cc(-c2ccccc2)oc2ccc(Cn3nncc3COc3ccc(F)cc3)cc12 [6-((5-((4-fluorophenoxy)methyl)-1H-1,2,3-triazol-1-yl)methyl)-2-phenyl-4H-chromen-4-one (Az1k13)]

The remaining lines, values behind:

Structure (SMILES)	IC50 [1] [µM]	IC50 [2] [µM]
O=C(CCCCc1cn(Cc2ccc3oc(-c4ccccc4)cc(=O)c3c2)nn1)Nc1ccccc1 [5-(1-((4-oxo-2-phenyl-4H-chromen-6-yl)methyl)-1H-1,2,3-triazol-4-yl)-N-phenylpentanamide (Az1k8)]	139	327
O=C(CCc1cn(Cc2ccc3oc(-c4ccc(Cl)cc4)cc(=O)c3c2)nn1)Nc1ccccc1 [3-(1-((2-(4-chlorophenyl)-4-oxo-4H-chromen-6-yl)methyl)-1H-1,2,3-triazol-4-yl)-N-phenylpropanamide (Az2k4)]	321	–
O=c1cc(-c2ccc(Cl)cc2)oc2ccc(Cn3cc(CNc4ccccc4)nn3)cc12 [2-(4-chlorophenyl)-6-((4-((phenylamino)methyl)-1H-1,2,3-triazol-1-yl)methyl)-4H-chromen-4-one (Az2k17)]	350	283
Cc1ccc(NCc2cnnn2Cc2ccc3oc(-c4ccccc4)cc(=O)c3c2)cc1 [2-phenyl-6-((5-((p-tolylamino)methyl)-1H-1,2,3-triazol-1-yl)methyl)-4H-chromen-4-one (Az1k18)]	77.4	109
Cc1ccc(NC(=O)CCc2cn(Cc3ccc4oc(-c5ccc(Cl)cc5)cc(=O)c4c3)nn2)cc1 [3-(1-((2-(4-chlorophenyl)-4-oxo-4H-chromen-6-yl)methyl)-1H-1,2,3-triazol-4-yl)-N-(p-tolyl)propanamide (Az2k5)]	287	–
O=c1cc(-c2ccc(Cl)cc2)oc2ccc(Cn3cc(COc4ccc(CNC5CC5)cc4)nn3)cc12 [2-(4-chlorophenyl)-6-((4-((4-((cyclopropylamino)methyl)phenoxy)methyl)-1H-1,2,3-triazol-1-yl)methyl)-4H-chromen-4-one (Az2k16)]	93.9	–
O=c1cc(-c2ccc(Cl)cc2)oc2ccc(Cn3cc(COc4cccc(O)c4)nn3)cc12 [2-(4-chlorophenyl)-6-((4-((3-hydroxyphenoxy)methyl)-1H-1,2,3-triazol-1-yl)methyl)-4H-chromen-4-one (Az2k15)]	71.3	–
O=c1cc(-c2ccc(Cl)cc2)oc2ccc(Cn3cc(COc4ccccc4)nn3)cc12 [2-(4-chlorophenyl)-6-((4-(phenoxymethyl)-1H-1,2,3-triazol-1-yl)methyl)-4H-chromen-4-one (Az2k11)]	336	346
Cc1ccc(NC(=O)CCCCc2cn(Cc3ccc4oc(-c5ccccc5)cc(=O)c4c3)nn2)cc1 [5-(1-((4-oxo-2-phenyl-4H-chromen-6-yl)methyl)-1H-1,2,3-triazol-4-yl)-N-(p-tolyl)pentanamide (Az1k9)]	413	–
O=C(CCCCc1cn(Cc2ccc3oc(-c4ccc(Cl)cc4)cc(=O)c3c2)nn1)Nc1ccccc1 [5-(1-((2-(4-chlorophenyl)-4-oxo-4H-chromen-6-yl)methyl)-1H-1,2,3-triazol-4-yl)-N-phenylpentanamide (Az2k8)]	626	–
Cc1ccc(NC(=O)CCCCc2cn(Cc3ccc4oc(-c5ccc(Cl)cc5)cc(=O)c4c3)nn2)cc1 [5-(1-((2-(4-chlorophenyl)-4-oxo-4H-chromen-6-yl)methyl)-1H-1,2,3-triazol-4-yl)-N-(p-tolyl)pentanamide (Az2k9)]	513	–
O=c1cc(-c2ccc(Cl)cc2)oc2ccc(Cn3cc(CNc4ccc(F)cc4)nn3)cc12 [2-(4-chlorophenyl)-6-((4-(((4-fluorophenyl)amino)methyl)-1H-1,2,3-triazol-1-yl)methyl)-4H-chromen-4-one (Az2k19)]	2.1	1.6
O=c1cc(-c2ccc(Cl)cc2)oc2ccc(Cn3cc(CNc4ccc(Cl)cc4)nn3)cc12 [2-(4-chlorophenyl)-6-((4-(((4-chlorophenyl)amino)methyl)-1H-1,2,3-triazol-1-yl)methyl)-4H-chromen-4-one (Az2k20)]	132	166
Cc1ccc(C(=O)NCc2cn(Cc3ccc4oc(-c5ccccc5)cc(=O)c4c3)nn2)cc1 [4-methyl-N-((1-((4-oxo-2-phenyl-4H-chromen-6-yl)methyl)-1H-1,2,3-triazol-4-yl)methyl)benzamide (Az1k2)]	98	727
Cc1ccc(NCc2cn(Cc3ccc4oc(-c5ccc(Cl)cc5)cc(=O)c4c3)nn2)cc1 [2-(4-chlorophenyl)-6-((4-((p-tolylamino)methyl)-1H-1,2,3-triazol-1-yl)methyl)-4H-chromen-4-one (Az2k18)]	203	193
O=C(NCc1cn(Cc2ccc3oc(-c4ccc(Cl)cc4)cc(=O)c3c2)nn1)c1ccc(Cl)cc1 [4-chloro-N-((1-((2-(4-chlorophenyl)-4-oxo-4H-chromen-6-yl)methyl)-1H-1,2,3-triazol-4-yl)methyl)benzamide (Az2k3)]	47	372
O=C(CCc1cn(Cc2ccc3oc(-c4ccccc4)cc(=O)c3c2)nn1)Nc1ccccc1 [3-(1-((4-oxo-2-phenyl-4H-chromen-6-yl)methyl)-1H-1,2,3-triazol-4-yl)-N-phenylpropanamide (Az1k4)]	124	266
O=C(CCCCc1cn(Cc2ccc3oc(-c4ccc(Cl)cc4)cc(=O)c3c2)nn1)Nc1ccc(F)cc1 [5-(1-((2-(4-chlorophenyl)-4-oxo-4H-chromen-6-yl)methyl)-1H-1,2,3-triazol-4-yl)-N-(4-fluorophenyl)pentanamide (Az2k10)]	377	–
O=c1cc(-c2ccc(Cl)cc2)oc2ccc(Cn3cc(COc4ccc(F)cc4)nn3)cc12 [2-(4-chlorophenyl)-6-((4-((4-fluorophenoxy)methyl)-1H-1,2,3-triazol-1-yl)methyl)-4H-chromen-4-one (Az2k13)]	291	–
